# Measured values from ChEMBL document CHEMBL5584207, “Discovery of novel indole derivatives as potent and selective inhibitors of proMMP-9 activation” (Bioorg Med Chem Lett, 2024).
# Active and inactive are the calls of the source. The calls are words filed in the database; no cut-off is given here.
# Legend:
# [1] = Solubility of compound; type: physicochemical
# [2] = molecular target: Matrix metalloproteinase-9 (Homo sapiens, UniProt P14780); test: Inhibition of proMMP-9 (unknown origin)
# Collagenase 3 = Collagenase 3 (Homo sapiens, UniProt P45452); test: Inhibition of proMMP-13 (unknown origin)
# [3] = molecular target: 72 kDa type IV collagenase (Homo sapiens, UniProt P08253); test: Inhibition of proMMP-2 (unknown origin)
# 72 kDa type IV collagenase, sequence (P08253 whole entry): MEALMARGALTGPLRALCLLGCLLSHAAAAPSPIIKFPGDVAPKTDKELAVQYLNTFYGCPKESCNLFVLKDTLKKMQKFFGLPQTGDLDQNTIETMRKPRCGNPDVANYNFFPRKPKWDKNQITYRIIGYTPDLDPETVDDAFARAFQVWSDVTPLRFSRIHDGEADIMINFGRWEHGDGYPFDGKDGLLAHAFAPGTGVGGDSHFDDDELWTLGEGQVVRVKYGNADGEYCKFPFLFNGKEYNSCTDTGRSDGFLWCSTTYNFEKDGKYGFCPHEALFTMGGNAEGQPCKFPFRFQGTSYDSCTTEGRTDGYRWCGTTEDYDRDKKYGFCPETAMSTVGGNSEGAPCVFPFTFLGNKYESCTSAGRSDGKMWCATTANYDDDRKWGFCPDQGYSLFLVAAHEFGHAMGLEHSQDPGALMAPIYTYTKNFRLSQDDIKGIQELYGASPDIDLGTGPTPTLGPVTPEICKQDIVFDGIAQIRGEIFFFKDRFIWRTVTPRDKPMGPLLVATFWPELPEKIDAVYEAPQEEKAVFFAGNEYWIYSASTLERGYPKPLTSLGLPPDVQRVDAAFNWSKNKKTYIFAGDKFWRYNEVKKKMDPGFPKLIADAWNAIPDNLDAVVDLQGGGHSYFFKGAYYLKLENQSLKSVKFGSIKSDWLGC
# [4] = molecular target: Stromelysin-1 (Homo sapiens) (UniProt P08254); test: Inhibition of MMP-3 catalytic activity (unknown origin)
# Stromelysin-1 (Homo sapiens), sequence (P08254 100-477 limits assumed): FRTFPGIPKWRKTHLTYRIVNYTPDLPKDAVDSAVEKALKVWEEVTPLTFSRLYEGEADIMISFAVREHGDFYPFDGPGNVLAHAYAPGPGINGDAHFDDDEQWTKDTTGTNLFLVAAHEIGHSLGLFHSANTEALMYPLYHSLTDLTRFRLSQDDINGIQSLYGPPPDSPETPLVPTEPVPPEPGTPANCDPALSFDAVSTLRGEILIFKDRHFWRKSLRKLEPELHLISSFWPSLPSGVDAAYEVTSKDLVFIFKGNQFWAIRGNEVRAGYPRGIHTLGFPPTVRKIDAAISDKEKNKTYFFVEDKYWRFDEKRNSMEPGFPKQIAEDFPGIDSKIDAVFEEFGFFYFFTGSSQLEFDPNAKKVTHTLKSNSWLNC
# Matrix metalloproteinase-9, sequence (P14780 whole entry): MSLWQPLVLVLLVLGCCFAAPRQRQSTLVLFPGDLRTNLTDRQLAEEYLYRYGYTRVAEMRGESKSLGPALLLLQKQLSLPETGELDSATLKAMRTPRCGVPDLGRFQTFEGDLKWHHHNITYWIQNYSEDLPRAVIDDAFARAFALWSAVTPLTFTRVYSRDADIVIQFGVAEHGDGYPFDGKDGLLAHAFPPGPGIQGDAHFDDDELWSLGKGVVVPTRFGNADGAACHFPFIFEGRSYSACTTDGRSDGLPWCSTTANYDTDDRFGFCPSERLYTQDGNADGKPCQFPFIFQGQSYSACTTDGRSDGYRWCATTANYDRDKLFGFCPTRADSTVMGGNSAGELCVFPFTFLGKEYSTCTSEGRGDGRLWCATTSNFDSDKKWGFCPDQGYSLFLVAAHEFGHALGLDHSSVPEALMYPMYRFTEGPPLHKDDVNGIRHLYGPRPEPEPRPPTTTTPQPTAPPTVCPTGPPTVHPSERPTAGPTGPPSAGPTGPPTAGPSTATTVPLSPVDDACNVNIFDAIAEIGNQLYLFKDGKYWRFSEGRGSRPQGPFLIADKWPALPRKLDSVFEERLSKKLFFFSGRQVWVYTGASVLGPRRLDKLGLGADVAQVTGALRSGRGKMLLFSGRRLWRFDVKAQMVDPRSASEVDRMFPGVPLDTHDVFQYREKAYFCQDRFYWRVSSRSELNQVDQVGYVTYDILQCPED
SMILES,solubility [1],IC50 [2],IC50 (Collagenase 3),IC50 [3],inhibition [4]
CCc1ccc2cc(C(=O)N3CCCc4cnccc4C3)[nH]c2c1,0.8 µg/mL,120 nM,–,–,–
CC(C)(O)c1ccc2cc(C(=O)N3CCCc4cnc(N)c(F)c4C3)[nH]c2c1,–,44 nM,> 30000 nM,> 30000 nM,–
CNc1cc(F)cc2cc(C(=O)N3CCc4ccc(C(=O)NCCN5CCCC5)cc4C3)[nH]c12,–,2600 nM,–,–,inactive
C[C@]1(O)C[C@@H](c2ccc3cc(C(=O)N4CCCc5cnccc5C4)[nH]c3c2)C1,3 µg/mL,160 nM,–,–,–
CCc1cccc2c(C(=O)N3CCc4ocnc4C3)n[nH]c12,–,8500 nM,–,–,inactive
O=C(c1cc2ccc(C3CC3)cc2[nH]1)N1CCc2ccccc2C1,–,> 50000 nM,–,–,–
O=C(c1cc2ccc(CCO)cc2[nH]1)N1CCCc2cnccc2C1,> 33 µg/mL,1100 nM,–,–,–
CC(C)(C)c1ccc2cc(C(=O)N3CCCc4cnccc4C3)[nH]c2c1,1.3 µg/mL,110 nM,–,–,–
O=C(c1cc2ccc(C3CC3)cc2[nH]1)N1CCCc2cnccc2C1,8.6 µg/mL,81 nM,–,–,–

# Now from value to compound:
solubility [1],IC50 [2],IC50 (Collagenase 3),IC50 [3],inhibition [4],SMILES
–,> 50000 nM,–,–,–,O=C(c1cc2ccc(C3CC3)cc2[nH]1)N1CCc2cnccc2C1
–,1100 nM,–,–,–,O=C(c1cc2ccc(C3CC3)cc2[nH]1)N1CCc2ocnc2C1
0.4 µg/mL,120 nM,–,–,–,O=C(c1cc2ccc(C3CCC3)cc2[nH]1)N1CCCc2cnccc2C1
–,1000 nM,–,–,–,O=C(NCCN1CCCC1)c1ccc2c(c1)CN(C(=O)c1cc3c(F)cc(C4CC4)cc3[nH]1)CC2
> 35 µg/mL,580 nM,–,–,–,CC(C)(O)c1ccc2cc(C(=O)N3CCCc4cnccc4C3)[nH]c2c1
